{
  "source": "the NIST ThermoML archive (doi:10.1016/j.jct.2010.04.022)",
  "key": {"[1]": {"assay": "xn = mol fraction of the nth substance listed", "conditions": "101 kPa, Liquid, Vibrating tube method"}, "[2]": {"conditions": "298.15 K; 101.33 kPa; Liquid; Vibrating tube method"}, "[3]": {"assay": "refractive index (Na D-line) (dimensionless)", "conditions": "298.15 K; 101.33 kPa; Liquid; Standard Abbe refractometry"}},
  "note": "± gives the expanded uncertainty stated by the source.",
  "data": [
    {"smiles": "CCOS(=O)(=O)[O-].CC[n+]1ccccc1", "note": "[1-ethylpyridinium ethyl sulfate] + CCCCCC", "values": [
      {"measurement": "mass density", "setting": "[1]; 283.15 K, x2 = 0.007", "value": "1259.82 ± 0.99", "unit": "kg/m3"},
      {"measurement": "mass density", "setting": "[1]; 298.15 K, x2 = 0.008", "value": "1249.78 ± 1.1", "unit": "kg/m3"}
    ]},
    {"smiles": "CCOS(=O)(=O)[O-].CC[n+]1ccccc1", "note": "[1-ethylpyridinium ethyl sulfate] + CCCCCCC", "values": [
      {"measurement": "mass density", "setting": "[1]; 283.15 K, x2 = 0.007", "value": "1260.51 ± 0.99", "unit": "kg/m3"},
      {"measurement": "mass density", "setting": "[1]; 298.15 K, x2 = 0.007", "value": "1250.63 ± 0.98", "unit": "kg/m3"}
    ]},
    {"smiles": "CCOS(=O)(=O)[O-].CC[n+]1ccccc1", "note": "[1-ethylpyridinium ethyl sulfate] + c1ccccc1", "values": [
      {"measurement": "mass density", "setting": "[1]; 283.15 K, x2 = 0.335", "value": "1198.57 ± 1.7", "unit": "kg/m3"},
      {"measurement": "mass density", "setting": "[1]; 298.15 K, x2 = 0.406", "value": "1171.69 ± 1.7", "unit": "kg/m3"}
    ]},
    {"smiles": "CCOS(=O)(=O)[O-].CC[n+]1ccccc1", "note": "[1-ethylpyridinium ethyl sulfate]", "values": [
      {"measurement": "mass density", "setting": "[2]", "value": "1252 ± 0.4", "unit": "kg/m3"},
      {"measurement": "refractive index", "setting": "[3]", "value": "1.50525 ± 0.00037"}
    ]}
  ]
}
